Among the data in patent US20250325677A1, “STAT6 DEGRADERS” (Gilead Sciences, Inc., priority 2024, published 2025) are DC50, EC50 and Emax values, retold here.

The target of one assay is STAT6 (Homo sapiens (Human), UniProt P42226). Nature of the assay: STAT6 degrader assay (HiBiT, HeLa LgBiT clone 4.14). The class given is cell-based. Conditions: HeLa LgBiT clone 4.14, 4-24 h; for DC50: geometric mean, given for compounds with >80% Emax, read-out: STAT6 degradation DC50. The method, boiled down: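 HeLa LgBiT clone 4.14 cells with HiBiT knocked into endogenous STAT6 were treated with compound for 4-24 h at 37° C. Luminescence after Nano-GLO substrate (0.5 h) measured remaining STAT6; 50 μM terfenadine wells defined 100% degradation, and DC50 (nM) was derived.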
In general terms: With HiBiT, luminescence reflects the tagged protein that the partner subunit can reach.

The test system of the next assay is eotaxin-3 release. As to the kind of experiment: Human whole blood eotaxin-3 assay (IL-4 stimulated). Type of assay: cell-based. Conditions: human whole blood, IL-4 0.4 nM, 48 hours; geometric mean; given for compounds with >80% Emax; read-out: Eotaxin-3 EC50. The gist of the method:
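Human whole blood was preincubated with compound for 120 min at 37 °C, then stimulated with recombinant human IL-4 (E. coli) at 0.4 nM final for 48 h. Inhibition of eotaxin-3 release gave EC50 values.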

Sequence of STAT6 (P42226 whole entry): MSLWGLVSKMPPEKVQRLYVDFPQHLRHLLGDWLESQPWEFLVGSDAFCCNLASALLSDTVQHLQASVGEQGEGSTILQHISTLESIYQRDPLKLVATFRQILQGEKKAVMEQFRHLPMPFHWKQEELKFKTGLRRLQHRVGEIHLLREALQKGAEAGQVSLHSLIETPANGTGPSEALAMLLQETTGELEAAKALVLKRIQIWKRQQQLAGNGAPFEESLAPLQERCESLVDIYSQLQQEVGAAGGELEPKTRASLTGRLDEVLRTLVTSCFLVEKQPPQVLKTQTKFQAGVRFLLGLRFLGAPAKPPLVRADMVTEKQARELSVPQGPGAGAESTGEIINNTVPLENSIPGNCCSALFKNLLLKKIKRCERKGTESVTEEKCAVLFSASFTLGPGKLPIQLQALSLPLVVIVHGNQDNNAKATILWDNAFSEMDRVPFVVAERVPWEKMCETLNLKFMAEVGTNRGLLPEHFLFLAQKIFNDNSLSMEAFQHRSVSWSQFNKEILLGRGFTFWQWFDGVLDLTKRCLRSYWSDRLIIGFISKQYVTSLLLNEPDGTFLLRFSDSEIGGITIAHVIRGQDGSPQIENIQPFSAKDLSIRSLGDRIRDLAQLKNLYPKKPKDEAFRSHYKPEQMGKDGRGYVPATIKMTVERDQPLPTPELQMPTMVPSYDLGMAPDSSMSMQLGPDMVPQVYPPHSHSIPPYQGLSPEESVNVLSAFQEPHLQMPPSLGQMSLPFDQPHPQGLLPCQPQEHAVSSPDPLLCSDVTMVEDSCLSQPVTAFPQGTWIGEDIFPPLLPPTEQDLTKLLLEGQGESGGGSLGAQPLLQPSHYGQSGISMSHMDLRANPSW

On to `C[C@@H](c1cc2c(-c3ccc(N)nc3)ccnc2n1C)N1CCC(c2ccc(C(=O)N3CCC(CN4CCN(Cc5cc6c(cc5Cl)n(C5CCC(=O)NC5=O)c(=O)n6C)CC4)CC3)cc2)CC1` (stereo partly drawn) [Example 3e30, 3-(5-((4-((1-(4-(1-((S)-1-(4-(6-aminopyridin-3-yl)-1-methyl-1H-pyrrolo[2,3-b]pyridin-2-yl)ethyl)piperidin-4-yl)benzoyl)piperidin-4-yl)methyl)piperazin-1-yl)methyl)-6-chloro-3-methyl-2-oxo-2,3-dihydro-1H-benzo[d]imidazol-1-yl)piperidine-2,6-dione], for which the DC50 (commonly the concentration giving 50% degradation) on STAT6 was determined as 7.2 nM. In addition, the EC50 – broadly, the concentration that produces a half-maximal response – in the assay with eotaxin-3 release is 36.9 nM.

In the case of `C[C@@H](c1cc2c(-c3ccc(N)nc3)ccnc2n1C)N1CCC(c2ccc(C(=O)N3CCC(CN4CCN(Cc5cc6c(cc5F)n(C5CCC(=O)NC5=O)c(=O)n6C5CC5)CC4)CC3)cc2)CC1` (stereo partly drawn) [Example 3e35, 3-(5-((4-((1-(4-(1-((S)-1-(4-(6-aminopyridin-3-yl)-1-methyl-1H-pyrrolo[2,3-b]pyridin-2-yl)ethyl)piperidin-4-yl)benzoyl)piperidin-4-yl)methyl)piperazin-1-yl)methyl)-3-cyclopropyl-6-fluoro-2-oxo-2,3-dihydro-1H-benzo[d]imidazol-1-yl)piperidine-2,6-dione], the DC50 on STAT6 was 3.2 nM. Besides, the EC50 in the assay with eotaxin-3 release was found to be 7.9 nM.

As to `C[C@@H](c1cc2c(-c3ccc(N)nc3)ccnc2n1C)N1CCC(c2ccc(C(=O)N3CCC(CN4CCN(Cc5ccc6c(c5)oc(=O)n6C5CCC(=O)NC5=O)CC4)CC3)cc2)CC1` (stereo partly drawn) [Example 3n5, 3-(6-((4-((1-(4-(1-((S)-1-(4-(6-aminopyridin-3-yl)-1-methyl-1H-pyrrolo[2,3-b]pyridin-2-yl)ethyl)-piperidin-4-yl)benzoyl)piperidin-4-yl)methyl)piperazin-1-yl)methyl)-2-oxobenzo[d]oxazol-3 (2H)-yl)piperidine-2,6-dione], the DC50 on STAT6 is 2.7 nM. Moreover, the EC50 in the assay with eotaxin-3 release was found to be 6 nM.

With `C[C@H]1CN(Cc2ccc3c(c2)n(C)c(=O)n3C2CCC(=O)NC2=O)CCN1CC1CCN(C(=O)c2ccc(C3CCN([C@@H](C)c4cc5c(-c6ccc(NCCO)nc6)ccnc5n4C)CC3)cc2)CC1` (stereo partly drawn) [Example 3e40, 3-(5-(((S)-4-((1-(4-(1-((S)-1-(4-(6-((2-hydroxyethyl)amino)pyridin-3-yl)-1-methyl-1H-pyrrolo[2,3-b]pyridin-2-yl)ethyl)piperidin-4-yl)benzoyl)piperidin-4-yl)methyl)-3-methylpiperazin-1-yl)methyl)-3-methyl-2-oxo-2,3-dihydro-1H-benzo[d]imidazol-1-yl)piperidine-2,6-dione], on STAT6, the DC50 was found to be 0.5 nM. Also, the EC50 with eotaxin-3 release turned out to be 3.8 nM.

With `COc1nc(N)ccc1-c1ccnc2c1cc([C@H](C)N1CCC(c3ccc(C(=O)N4CCC(CN5CCN(Cc6ccc7c(c6)n(C)c(=O)n7C6CCC(=O)NC6=O)C[C@@H]5C)CC4)cc3)CC1)n2C` (stereo partly drawn) [Example 3e41, 3-(5-(((S)-4-((1-(4-(1-((S)-1-(4-(6-amino-2-methoxypyridin-3-yl)-1-methyl-1H-pyrrolo[2,3-b]pyridin-2-yl)ethyl)piperidin-4-yl)benzoyl)piperidin-4-yl)methyl)-3-methylpiperazin-1-yl)methyl)-3-methyl-2-oxo-2,3-dihydro-1H-benzo[d]imidazol-1-yl)piperidine-2,6-dione], the DC50 at STAT6 came out at 0.2 nM. Besides, the EC50 with eotaxin-3 release came to 0.8 nM.

Regarding `C[C@H]1CN(Cc2ccc3c(c2)n(C2CC2)c(=O)n3C2CCC(=O)NC2=O)CCN1CC1CCN(C(=O)c2ccc(C3CCN([C@@H](C)c4cc5c(-c6ccc(N)nc6)ccnc5n4C)CC3)cc2)CC1` (stereo partly drawn) [Example 3e17, 3-(5-(((S)-4-((1-(4-(1-((S)-1-(4-(6-aminopyridin-3-yl)-1-methyl-1H-pyrrolo[2,3-b]pyridin-2-yl)ethyl)piperidin-4-yl)benzoyl)piperidin-4-yl)methyl)-3-methylpiperazin-1-yl)methyl)-3-cyclopropyl-2-oxo-2,3-dihydro-1H-benzo[d]imidazol-1-yl)piperidine-2,6-dione], at STAT6, the DC50 was 0.8 nM. For the same compound, in the assay with eotaxin-3 release, the EC50 turned out to be 2.8 nM.

Regarding `C[C@H]1CN(Cc2ccc3c(c2)C2(CC2)C(=O)N3C2CCC(=O)NC2=O)CCN1CC1CCN(C(=O)c2cc(F)c(C3CCN(Cc4cc5c(-c6ccc(N)nc6)ccnc5n4C)CC3)c(F)c2)CC1` (stereo partly drawn) [Example 3h24, 3-(5′-(((S)-4-((1-(4-(1-((4-(6-aminopyridin-3-yl)-1-methyl-1H-pyrrolo[2,3-b]pyridin-2-yl)methyl)piperidin-4-yl)-3,5-difluorobenzoyl)piperidin-4-yl)methyl)-3-methylpiperazin-1-yl)methyl)-2′-oxospiro[cyclopropane-1,3′-indolin]-1′-yl)piperidine-2,6-dione], the DC50 on STAT6 was 1.4 nM. Besides, the half-maximal effective concentration (EC50) with eotaxin-3 release worked out at 3.9 nM.

In the case of `C[C@H]1CN(Cc2cc3c(cc2F)n([C@H]2CCC(=O)NC2=O)c(=O)n3C2CC2)CCN1CC1CCN(C(=O)c2ccc(C3CCN([C@@H](C)c4cc5c(-c6ccc(N)nc6)ccnc5n4C)CC3)cc2)CC1` (single isomer, unassigned) [Example 3e62], on STAT6, the DC50 is 0.8 nM. The EC50 in the assay with eotaxin-3 release was found to be 4.9 nM.

For `Cn1c(CN2CCC(c3ccc(C(=O)N4CCC(CN5CCN(Cc6cc7c(cc6F)n(C6CCC(=O)NC6=O)c(=O)n7C)CC5)CC4)cc3)CC2)cc2c(-c3ccc(N)nc3)ccnc21` (stereo not drawn) [Example 3e15, 3-(5-((4-((1-(4-(1-((4-(6-aminopyridin-3-yl)-1-methyl-1H-pyrrolo[2,3-b]pyridin-2-yl)methyl)piperidin-4-yl)benzoyl)piperidin-4-yl)methyl)piperazin-1-yl)methyl)-6-fluoro-3-methyl-2-oxo-2,3-dihydro-1H-benzo[d]imidazol-1-yl)piperidine-2,6-dione], the Emax (commonly the size of the effect at its maximum, as opposed to the concentration needed) on STAT6 (read-out: STAT6 degradation Emax (%)) lay in the range of 70 to 80%. The 50% effective concentration (EC50) with eotaxin-3 release is 135 nM.

With `C[C@@H](c1cc2c(-c3ccc(N)nc3)ccnc2n1C)N1CCC(c2ccc(C(=O)N3CCC(CN4CCN(Cc5ccc6c(c5)n(C)c(=O)n6C5CCC(=O)NC5=O)C[C@@H]4C(F)(F)F)CC3)cc2)CC1` (stereo partly drawn) [Example 3e42, 3-(5-(((R)-4-((1-(4-(1-((S)-1-(4-(6-aminopyridin-3-yl)-1-methyl-1H-pyrrolo[2,3-b]pyridin-2-yl)-ethyl)piperidin-4-yl)benzoyl)piperidin-4-yl)methyl)-3-(trifluoromethyl)piperazin-1-yl)methyl)-3-methyl-2-oxo-2,3-dihydro-1H-benzo[d]imidazol-1-yl)piperidine-2,6-dione], the DC50 on STAT6 is 1.8 nM. The EC50 with eotaxin-3 release amounted to 3.4 nM.

Consider `C[C@H]1CN(Cc2ccc3c(c2)n(C)c(=O)n3[C@H]2CCC(=O)NC2=O)CCN1CC1CCN(C(=O)c2ccc(C3CCN([C@@H](C)c4cc5c(-c6ccc(N)nc6)ccnc5n4C)CC3)cc2)CC1` (single isomer, unassigned) [Example 3e46], for which the DC50 on STAT6 worked out at 0.3 nM. Besides, the EC50 in the assay on eotaxin-3 release came to 0.8 nM.

Consider `C[C@H]1CN(Cc2ccc3c(c2)n(C2CC2)c(=O)n3[C@H]2CCC(=O)NC2=O)CCN1CC1CCN(C(=O)c2ccc(C3CCN([C@@H](C)c4cc5c(-c6ccc(N)nc6)ccnc5n4C)CC3)cc2)CC1` (single isomer, unassigned) [Example 3e50], for which, on STAT6, the DC50 stood at 1 nM. In addition, the EC50 with eotaxin-3 release turned out to be 2.3 nM.
